According to article PMC8948292, “Combining PEGylated mito-atovaquone with MCT and Krebs cycle redox inhibitors as a potential strategy to abrogate tumor cell proliferation” (Scientific Reports, 2022):
pIC50: −log10 of the molar value. Where two headings read alike, the source gives them in different places.

Experiments:
MiaPaCa-2 cells = experiment: Cell proliferation (cell confluence), IncuCyte Live-Cell Analysis System; type: cell-based, human; settings: MiaPaCa-2 cells
Procedure, shortened: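 MiaPaCa-2 cells in DMEM with 10% FBS, plated at 1,000 cells/well in triplicate and adhered overnight, then treated with Mito-PEG-ATO analogs. Confluence imaged label-free over several days, increase in percent confluence serving as proliferation surrogate.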

A549 cells = experiment: as above; type: cell-based; settings: Homo sapiens; A549 cells; control ~90% confluence; read-out: IC50, inhibition of A549 cell proliferation
Procedure: (§1) The following cell lines were obtained from the American Type Culture Collection (Manassas, VA), where they were regularly authenticated: MiaPaCa-2 (ATCC Cat# CRL-1420, human pancreatic cancer cells), U87MG (ATCC Cat# HTB-14, human brain cancer cells), A549 (ATCC Cat# CCL-185, lung cancer cells), and HCT-116 (ATCC Cat# CCL-247, colon cancer cells). All cell lines were grown at 37 °C in 5% carbon dioxide. MiaPaCa-2 cells were maintained in Dulbecco's Modified Eagle Medium (Thermo Fisher Scientific, Waltham, MA; Cat# 11965) supplemented with 10% fetal bovine serum. U87MG, A549, and HCT-116 cells were maintained in RPMI 1640 medium (Thermo Fisher Scientific, Cat# 11875), supplemented with 10% fetal bovine serum. All cells were stored in liquid nitrogen and used within 20 passages after thawing.
(§2) The IncuCyte Live-Cell Analysis System was used to monitor cell proliferation[3],[33],[67]. As shown in previous publications[3],[67], this imaging system is probe-free and noninvasive, and enables continuous monitoring of cell confluence over several days. The increase in the percentage of cell confluence was used as a surrogate marker of cell proliferation. In a 96-well plate, cells were plated at 1,000 cells per well in triplicates and left to adhere overnight. Cells were then treated with Mito-PEG-ATO analogs, and the cell confluency was recorded over several days in the IncuCyte Live-Cell Analysis System.
(§3) Figure S7. Effects of Mito-PEG-ATO analogs on the proliferation of human lung cancer (A549) cells and human colon cancer (HCT-116) cells. (A) The effects of Mito-PEG5-ATO and ATO on the proliferation of A549 (left) or HCT-116 (right) cells were monitored in the IncuCyte Live-Cell Analysis system. The IncuCyte analyzer provides real-time updates on cell confluence, based on segmentation of high definition-phase contrast images. Representative cell images were shown as a segmentation mask illustrated in brown when control cells reached 90% confluence (vertical solid black line). (B) The IC50 values for A549 (left) or HCT-116 (right) cells were determined at the point at which control cells reached ~90% confluence (vertical solid black line). Relative cell confluence (control is taken as 100%) is plotted against concentration. Dashed lines represent the fitting curves used to determine the IC50 values as indicated. Data shown are the mean±SD.

HCT-116 cells = experiment: as above; type: cell-based; settings: Homo sapiens; HCT-116 cells; control ~90% confluence; read-out: IC50, inhibition of HCT-116 cell proliferation
Procedure: as §1, §2, §3

[1] = test system: mitochondrial respiration (OCR) in intact MiaPaCa-2 cells; experiment: Intact cell mitochondrial respiration (basal OCR), Seahorse XF-96; type: cell-based, human; settings: 24 h treatment; for OCR (pmol/min/µg protein): intact MiaPaCa-2 cells, baseline OCR, mean, n=4
Procedure: (§4) Mitochondrial oxygen consumption was measured using the Seahorse XF-96 Extracellular Flux Analyzer (Agilent, North Billerica, MA)[3],[33],[67],[68]. To determine the intact cell mitochondrial function of MiaPaCa-2 cells in response to Mito-PEG-ATO analogs, we used the bioenergetic function assay previously described[2],[3]. […] From these measurements, indices of mitochondrial function were determined as previously described[2],[3]. For mitochondrial complex activities assays, after cells were treated with Mito-PEG-ATO analogs for 24 h, the OCR-based assessment of mitochondrial complex activities was carried out on acutely permeabilized cells in the presence of different mitochondrial substrates, i.e., pyruvate/malate for complex I and duroquinol for complex III[3],[32],[34],[69]. Rotenone, malonate, and antimycin A (Sigma-Aldrich, St. Louis, MO) were used as specific inhibitors of mitochondrial complexes I, II, and III, respectively. Briefly, cells that were intact after treatments were immediately permeabilized using the Seahorse XF Plasma Membrane Permeabilizer (Agilent). The mitochondrial complex I-induced OCR was assayed in mannitol and sucrose buffer[69] containing 10 mM pyruvate and 1.5 mM malate (substrates for complex I) and 10 mM malonate (which inhibits complex II activities). The mitochondrial complex III-driven OCR was assayed in a mannitol and sucrose buffer containing 0.5 mM duroquinol (substrate for complex III) as well as 1 µM rotenone and 10 mM malonate (which inhibit both complex I and II activities). The IC50 values were determined as previously reported.

[2] = target: mitochondrial complex I (MiaPaCa-2 cells) (Homo sapiens, UniProt O75251+O75306+P03886); experiment: Complex I-dependent oxygen consumption in permeabilized cells, Seahorse XF-96; type: cell-based; settings: 24 h, with Mito-PEG5-ATO
Procedure: as §4, with “The mitochondrial complex III-driven OCR was assayed in a mannitol and sucrose buffer containing 0.5 mM duroquinol (substrate for complex III) as well as 1 µM rotenone and 10 mM malonate (which inhibit both complex I and II activities).” left out

[3] = target: mitochondrial complex III (MiaPaCa-2 cells) (Homo sapiens, UniProt P00156); experiment: Complex III-dependent oxygen consumption in permeabilized cells, Seahorse XF-96; type: cell-based; settings: MiaPaCa-2 cells; with Mito-PEG5-ATO
Procedure: as §4

Sequence of mitochondrial complex III (MiaPaCa-2 cells) (P00156 whole entry): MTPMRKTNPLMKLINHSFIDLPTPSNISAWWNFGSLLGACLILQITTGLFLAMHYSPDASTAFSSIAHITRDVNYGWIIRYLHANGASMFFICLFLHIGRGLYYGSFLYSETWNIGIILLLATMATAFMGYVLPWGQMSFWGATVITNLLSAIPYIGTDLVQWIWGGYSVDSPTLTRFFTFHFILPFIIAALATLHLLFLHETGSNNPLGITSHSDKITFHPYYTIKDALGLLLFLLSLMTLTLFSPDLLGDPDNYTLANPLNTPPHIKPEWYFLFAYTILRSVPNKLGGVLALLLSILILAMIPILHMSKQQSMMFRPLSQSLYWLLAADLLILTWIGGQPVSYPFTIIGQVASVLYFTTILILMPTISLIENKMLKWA
Sequence of mitochondrial complex III (MiaPaCa-2 cells) (P47985 whole entry partner): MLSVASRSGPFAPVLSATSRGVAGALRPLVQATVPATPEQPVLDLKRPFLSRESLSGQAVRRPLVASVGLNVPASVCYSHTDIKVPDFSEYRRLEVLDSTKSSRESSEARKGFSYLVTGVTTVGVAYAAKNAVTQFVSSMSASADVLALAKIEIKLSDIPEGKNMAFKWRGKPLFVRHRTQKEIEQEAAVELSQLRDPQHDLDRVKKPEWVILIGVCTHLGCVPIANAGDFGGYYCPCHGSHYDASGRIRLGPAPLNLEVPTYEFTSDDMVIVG
Sequence of mitochondrial complex I (MiaPaCa-2 cells) (O75306 34-463): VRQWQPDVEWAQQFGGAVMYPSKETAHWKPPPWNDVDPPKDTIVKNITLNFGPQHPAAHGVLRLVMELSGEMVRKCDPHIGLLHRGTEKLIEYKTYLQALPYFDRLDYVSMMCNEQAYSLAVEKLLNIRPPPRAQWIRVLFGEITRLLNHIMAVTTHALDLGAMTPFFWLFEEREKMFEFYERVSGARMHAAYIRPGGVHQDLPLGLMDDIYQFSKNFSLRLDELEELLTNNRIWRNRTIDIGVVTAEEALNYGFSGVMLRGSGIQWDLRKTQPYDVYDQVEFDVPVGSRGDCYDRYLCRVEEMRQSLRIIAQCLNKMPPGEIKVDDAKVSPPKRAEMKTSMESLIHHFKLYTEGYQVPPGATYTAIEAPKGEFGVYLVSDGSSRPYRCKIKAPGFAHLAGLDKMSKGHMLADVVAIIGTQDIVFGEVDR
Sequence of mitochondrial complex I (MiaPaCa-2 cells) (O75251 39-213): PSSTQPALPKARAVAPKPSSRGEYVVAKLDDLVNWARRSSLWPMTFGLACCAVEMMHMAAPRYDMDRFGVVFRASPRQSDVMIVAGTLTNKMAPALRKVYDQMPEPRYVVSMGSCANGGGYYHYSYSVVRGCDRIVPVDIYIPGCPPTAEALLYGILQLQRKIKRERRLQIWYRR
Sequence of mitochondrial complex I (MiaPaCa-2 cells) (P03886 whole entry): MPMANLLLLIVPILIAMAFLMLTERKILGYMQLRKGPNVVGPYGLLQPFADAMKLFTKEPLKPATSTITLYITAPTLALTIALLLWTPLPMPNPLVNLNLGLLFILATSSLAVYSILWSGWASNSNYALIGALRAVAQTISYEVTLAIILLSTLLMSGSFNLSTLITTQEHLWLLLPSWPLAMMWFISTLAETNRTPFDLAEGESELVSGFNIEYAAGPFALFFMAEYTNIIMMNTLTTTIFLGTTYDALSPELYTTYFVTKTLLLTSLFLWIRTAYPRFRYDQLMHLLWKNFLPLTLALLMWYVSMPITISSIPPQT

Structure (SMILES) | pIC50 (MiaPaCa-2 cells; Homo sapiens, MIA PaCa-2, determined when control cells reached ~90% confluence, read-out: IC50, inhibition of cell proliferation) | pIC50 (A549 cells) | pIC50 (HCT-116 cells) | OCR (pmol/min/µg protein) ([1]; 1 µM) | OCR (pmol/min/µg protein) ([1]; 3 µM) | OCR (pmol/min/µg protein) ([1]; 10 µM) | OCR (pmol/min/µg protein) ([1]; 15 µM) | OCR (pmol/min/µg protein) ([1]; 17.5 µM) | OCR (pmol/min/µg protein) ([1]; 20 µM) | OCR (pmol/min/µg protein) ([1]; 22.5 µM) | OCR (pmol/min/µg protein) ([1]; 25 µM) | OCR (pmol/min/µg protein) ([1]; 30 µM) | OCR (pmol/min/µg protein) ([1]; 40 µM) | OCR (pmol/min/µg protein) ([1]; 50 µM) | pIC50 ([1]; Homo sapiens, MIA PaCa-2, MiaPaCa-2 cells, read-out: IC50, inhibition of basal OCR in intact cells) | Inhibition of cell proliferation in combination with Mito-PEG5-ATO (combination index) (MiaPaCa-2 cells; combined with Mito-PEG5-ATO) | % changes of IC50 with vs without Mito-PEG5-ATO (MiaPaCa-2 cells; heat map Fig. 7d) | pIC50 (MiaPaCa-2 cells; inhibitor alone, control ~90% confluence, read-out: IC50 (cell proliferation) without Mito-PEG5-ATO) | Effect on the decrease in complex I-induced oxygen consumption induced by Mito-PEG5-ATO [2] | Effect on the decrease in complex III-induced oxygen consumption induced by Mito-PEG5-ATO [3]
O=C1C(O)=C([C@H]2CC[C@H](c3ccc(Cl)cc3)CC2)C(=O)c2ccccc21 [ATO, atovaquone] | 4.72 | 4.62 | 4.70 | 11.69 pmol/min/µg protein | 11.27 pmol/min/µg protein | 4.45 pmol/min/µg protein | 3.40 pmol/min/µg protein | 2.08 pmol/min/µg protein | 1.80 pmol/min/µg protein | 2.05 pmol/min/µg protein | 2.46 pmol/min/µg protein | 1.99 pmol/min/µg protein | 2.11 pmol/min/µg protein | 0.93 pmol/min/µg protein | 5.19 | – | – | – | – | –
Cc1cccc(COc2ccccc2CN(CC[C@H](N)C(=O)O)Cc2ccccc2OCc2cccc(C)c2)c1 [V-9302, reference compound] | – | – | – | – | – | – | – | – | – | – | – | – | – | – | – | synergistically inhibited | 71.1% | 5.07 | Neither AZD-3965 nor V-9302 significantly affected | Neither AZD-3965 nor V-9302 significantly affected
